Experimental data published in ChEMBL document CHEMBL4342522 (J Med Chem, 2020).
Calls of active or inactive are those of the source. The rule behind the calls is not given here.

Assays:
[1] = Permeability in dog MDCK cells by PAMPA; type: ADME, cell-based, Canis lupus familiaris; conditions: read-out: permeability
[2] = Unbound hepatic clearance in human liver microsomes; type: ADME, Microsome
NCI-H1299 = experiment: Antiproliferative activity against human H1299 cells assessed as reduction in cell viability after 5 days by CellTiter-Glo assay; type: functional, cell-based; conditions: NCI-H1299, 120 h
[3] = Unbound hepatic clearance in rat liver microsomes; type: ADME, Microsome
[4] = target: T1, Bromodomain-containing protein 4 (Homo sapiens, UniProt O60885); experiment: Inhibition of human N-terminal His6 tagged BRD4 BD2 (352 to 457) residues expressed in Escherichia coli BL21(DE3) cells after 1 hr by TR-FRET assay
SKM-1 [5] = experiment: Antiproliferative activity against human SKM1 cells assessed as reduction in cell viability after 5 days by CellTiter-Glo assay; type: functional, cell-based; conditions: SKM-1, 120 h
[6] = target: T1, Bromodomain-containing protein 4; experiment: biochemical; type: cell-based
Description: Inhibition of human N-terminal His6 tagged BRD4 BD1 (57 to 168) residues expressed in Escherichia coli BL21(DE3) cells after 1 hr by TR-FRET assay

[7] = Unbound hepatic clearance in mouse liver microsomes; type: ADME, Microsome
SKM-1 [8] = experiment: Antitumor activity against human SKM1 cells xenografted in SCID mouse assessed as tumor growth inhibition at 60 mg/kg, po bid by caliper method; type: functional, organism-based
[9] = Unbound hepatic clearance in monkey liver microsomes; type: ADME, Macaca mulatta, Microsome; conditions: rhesus monkey
[10] = Half life in dog at 0.1 mg/kg, iv; type: ADME, organism-based, Canis lupus familiaris; conditions: in vivo
[11] = AUC in mouse at 1 mg/kg, iv; type: ADME, organism-based; conditions: in vivo
[12] = Oral bioavailability in monkey at 0.3 mg/kg; type: ADME, organism-based, Macaca mulatta; conditions: rhesus monkey, in vivo
[13] = Half life in mouse at 1 mg/kg, po; type: ADME, organism-based; conditions: in vivo
[14] = Oral bioavailability in rat at 1 mg/kg; type: ADME, organism-based; conditions: in vivo
[15] = Volume of distribution at steady state in dog at 0.1 mg/kg, iv; type: ADME, organism-based, Canis lupus familiaris; conditions: in vivo, read-out: Vdss
[16] = Volume of distribution at steady state in rat at 1 mg/kg, iv; type: ADME, organism-based; conditions: in vivo, read-out: Vdss
[17] = Half life in monkey at 0.1 mg/kg, iv; type: ADME, organism-based, Macaca mulatta; conditions: rhesus monkey, in vivo
[18] = Half life in mouse at 1 mg/kg, iv; type: ADME, organism-based; conditions: in vivo
[19] = Clearance in dog plasma at 0.1 mg/kg, iv; type: ADME, organism-based, Canis lupus familiaris
[20] = Clearance in rat plasma at 1 mg/kg, iv; type: ADME, organism-based
[21] = Volume of distribution at steady state in monkey at 0.1 mg/kg, iv; type: ADME, organism-based, Macaca mulatta; conditions: rhesus monkey, in vivo, read-out: Vdss
[22] = AUC in dog at 0.3 mg/kg, po; type: ADME, organism-based, Canis lupus familiaris; conditions: in vivo
[23] = AUC in dog at 0.1 mg/kg, iv; type: ADME, organism-based, Canis lupus familiaris; conditions: in vivo
[24] = AUC in rat at 1 mg/kg, po; type: ADME, organism-based; conditions: in vivo
SKM-1 [25] = experiment: Antitumor activity against human SKM1 cells xenografted in SCID mouse assessed as tumor growth inhibition at 1 mg/kg, po qd for 21 days by caliper method; type: functional, organism-based
[26] = Clearance in mouse plasma at 1 mg/kg, iv; type: ADME, organism-based
[27] = AUC in rat at 1 mg/kg, iv; type: ADME, organism-based; conditions: in vivo
[28] = Half life in rat at 1 mg/kg, iv; type: ADME, organism-based; conditions: in vivo
[29] = Half life in dog at 0.3 mg/kg, po; type: ADME, organism-based, Canis lupus familiaris; conditions: in vivo
[30] = Oral bioavailability in dog at 0.3 mg/kg; type: ADME, organism-based, Canis lupus familiaris; conditions: in vivo
[31] = AUC in mouse at 1 mg/kg, po; type: ADME, organism-based; conditions: in vivo
[32] = Volume of distribution at steady state in mouse at 1 mg/kg, iv; type: ADME, organism-based; conditions: in vivo, read-out: Vdss
[33] = Oral bioavailability in mouse at 1 mg/kg; type: ADME, organism-based; conditions: in vivo
[34] = Half life in rat at 1 mg/kg, po; type: ADME, organism-based; conditions: in vivo
[35] = Clearance in monkey plasma at 0.1 mg/kg, iv; type: ADME, organism-based, Macaca mulatta; conditions: rhesus monkey
[36] = AUC in monkey at 0.1 mg/kg, iv; type: ADME, organism-based, Macaca mulatta; conditions: rhesus monkey, in vivo

CCNC(=O)c1cc2c(-c3cc(S(=O)(=O)CC)ccc3Oc3c(C)cccc3C(F)(F)F)cn(C)c(=O)c2[nH]1
Papp [1]: 15.2 ×10⁻⁶ cm/s | CL free [2]: 75 mL/min/kg | IC50 (NCI-H1299): 1200 nM | CL free [3]: 200 mL/min/kg | Ki [4]: 5.8 nM | IC50 (SKM-1 [5]): 28 nM | Ki [6]: 470 nM | CL free [7]: 900 mL/min/kg

CCNC(=O)c1cc2c(-c3cc(S(=O)(=O)CC)ccc3Oc3c(C)cccc3C#N)cn(C)c(=O)c2[nH]1
Papp [1]: 15.3 ×10⁻⁶ cm/s | CL free [2]: 683 mL/min/kg | IC50 (NCI-H1299): 730 nM | CL free [3]: 1530 mL/min/kg | Ki [4]: 3.2 nM | IC50 (SKM-1 [5]): 37 nM | Ki [6]: 69 nM | CL free [7]: 817 mL/min/kg

CCNC(=O)c1cc2c(-c3cc(S(=O)(=O)CC)ccc3-n3ccc4cccc(C)c43)cn(C)c(=O)c2[nH]1
Papp [1]: 14.7 ×10⁻⁶ cm/s | CL free [2]: 700 mL/min/kg | IC50 (NCI-H1299): 1900 nM | CL free [3]: 1550 mL/min/kg | Ki [4]: 1.1 nM | IC50 (SKM-1 [5]): 23 nM | Ki [6]: 380 nM | CL free [7]: 1830 mL/min/kg

CCNC(=O)c1cc2c(-c3cc(S(=O)(=O)CC)ccc3-c3cccc4cc[nH]c34)cn(C)c(=O)c2[nH]1
Papp [1]: 3.5 ×10⁻⁶ cm/s | CL free [2]: 140 mL/min/kg | IC50 (NCI-H1299): 3900 nM | CL free [3]: 233 mL/min/kg | Ki [4]: 0.9 nM | IC50 (SKM-1 [5]): 34 nM | Ki [6]: 170 nM | CL free [7]: 517 mL/min/kg

CCN(C)C(=O)c1cc2c(-c3cc(S(C)(=O)=O)ccc3Oc3ccc(F)cc3F)cn(C)c(=O)c2[nH]1
Papp [1]: 16 ×10⁻⁶ cm/s | CL free [2]: 63.3 mL/min/kg | IC50 (NCI-H1299): 390 nM | CL free [3]: 282 mL/min/kg | Ki [4]: 40 nM | IC50 (SKM-1 [5]): 56 nM | Ki [6]: 13 nM | CL free [7]: 288 mL/min/kg

CCNC(=O)c1cc2c(-c3cc(S(=O)(=O)CC)ccc3Oc3c(C)cc(F)cc3C)cn(C)c(=O)c2[nH]1
Papp [1]: 6.12 ×10⁻⁶ cm/s | CL free [2]: 167 mL/min/kg | IC50 (NCI-H1299): 810 nM | CL free [3]: 467 mL/min/kg | Ki [4]: 1.3 nM | IC50 (SKM-1 [5]): 14 nM | Ki [6]: 79 nM | CL free [7]: 917 mL/min/kg

CCNC(=O)c1cc2c(-c3cc(NC(C)=O)ccc3Oc3c(C)cccc3C)cn(C)c(=O)c2[nH]1
Papp [1]: 1.96 ×10⁻⁶ cm/s | CL free [2]: 83.3 mL/min/kg | IC50 (NCI-H1299): 730 nM | CL free [3]: 667 mL/min/kg | Ki [4]: 0.5 nM | IC50 (SKM-1 [5]): 3.5 nM | Ki [6]: 76 nM | CL free [7]: 2000 mL/min/kg

CCS(=O)(=O)Nc1ccc(Oc2ccc(F)cc2F)c(-c2cn(C)c(=O)c3[nH]ccc23)c1
inhibition (SKM-1 [8]): Active

CCNC(=O)c1cc2c(-c3cc(S(=O)(=O)CC)ccc3Oc3c(C)cccc3C)cn(C)c(=O)c2[nH]1
CL free [9]: 533 mL/min/kg | half-life [10]: 3.7 h | AUC [11]: 1440 ng·h/mL | bioavailability [12]: 0% | Papp [1]: 7.68 ×10⁻⁶ cm/s | half-life [13]: 1 h | bioavailability [14]: 7% | Vd [15]: 1.7 L/kg | Vd [16]: 3.5 L/kg | CL free [2]: 90 mL/min/kg | half-life [17]: 1.5 h | IC50 (NCI-H1299): 450 nM | half-life [18]: 1 h | CL free [3]: 1070 mL/min/kg | clearance [19]: 5.67 mL/min/kg | Ki [4]: 1.1 nM | clearance [20]: 45.2 mL/min/kg | Vd [21]: 2.3 L/kg | AUC [22]: 644 ng·h/mL | AUC [23]: 291 ng·h/mL | AUC [24]: 27 ng·h/mL | IC50 (SKM-1 [5]): 5.2 nM | Ki [6]: 120 nM | inhibition (SKM-1 [25]): Active | clearance [26]: 11.5 mL/min/kg | AUC [27]: 384 ng·h/mL | half-life [28]: 1.4 h | half-life [29]: 0.3 h | bioavailability [30]: 74% | AUC [31]: 760 ng·h/mL | CL free [7]: 700 mL/min/kg | Vd [32]: 0.8 L/kg | bioavailability [33]: 53% | half-life [34]: 1 h | clearance [35]: 20 mL/min/kg | AUC [36]: 89 ng·h/mL

CCNC(=O)c1cc2c(-c3cc(S(=O)(=O)CC)ccc3Oc3ccccc3Cl)cn(C)c(=O)c2[nH]1
Papp [1]: 13.8 ×10⁻⁶ cm/s | CL free [2]: 200 mL/min/kg | IC50 (NCI-H1299): 340 nM | CL free [3]: 1200 mL/min/kg | Ki [4]: 0.5 nM | IC50 (SKM-1 [5]): 3.3 nM | Ki [6]: 6.5 nM | CL free [7]: 1200 mL/min/kg

CCNC(=O)c1cc2c(-c3cc(C4(O)CCC4)ccc3Oc3c(C)cc(F)cc3C)cn(C)c(=O)c2[nH]1
Papp [1]: 1.56 ×10⁻⁶ cm/s | CL free [2]: 5830 mL/min/kg | IC50 (NCI-H1299): 2200 nM | CL free [3]: 6330 mL/min/kg | Ki [4]: 1.5 nM | IC50 (SKM-1 [5]): 26 nM | Ki [6]: 220 nM | CL free [7]: 15700 mL/min/kg
